Assay [1] addresses purified human autoBACE-2 (Homo sapiens (Human), UniProt Q9Y5Z0). In words: BACE-2 Assay (BACE-HTRF assay). As to conditions: Ki calculated from IC50 using the Cheng-Prusoff equation; QSY7-EISEVNLDAEFC-Eu-amide substrate, pH 5.0. In kind it is biochemical. Here is the method: Inhibitor IC50s at purified human autoBACE-2 are determined in a time-resolved endpoint proteolysis assay that measures hydrolysis of the QSY7-EISEVNLDAEFC-Eu-amide FRET peptide substrate (BACE-HTRF assay). BACE-mediated hydrolysis of this peptide results in an increase in relative fluorescence (RFU) at 620 nm after excitation with 320 nm light. Inhibitor compounds, prepared at 3× the desired final concentration in 1×BACE assay buffer (20 mM sodium acetate pH 5.0, 10% glycerol, 0.1% Brij-35) supplemented with 7.5% DMSO are preincubated with an equal volume of autoBACE-2 enzyme diluted in 1×BACE assay buffer (final enzyme concentration 1 nM) in black 384-well NUNC plates for 30 minutes at 30° C. […] DMSO is present at 5% final concentration in the assay. Following laser excitation of sample wells at 320 nm, the fluorescence signal at 620 nm is collected for 400 ms following a 50 μs delay on a RUBYstar HTRF plate reader (BMG Labtechnologies). Raw RFU data is normalized to maximum (1.0 nM BACE/DMSO) and minimum (no enzyme/DMSO) RFU values. IC50s are determined by nonlinear regression analysis (sigmoidal dose response, variable slope) of percent inhibition data with minimum and maximum values set to 0 and 100 percent respectively. Similar IC50s are obtained when using raw RFU data. The Ki values are calculated from the IC50 using the Cheng-Prusoff equation.

The target of assay [2] is Recombinant human soluble BACE1 catalytic domain (Homo sapiens (Human), UniProt P56817). The assay is described as follows: BACE1 HTRF FRET Assay. In kind it is biochemical. As to conditions: for Ki: Ki calculated from IC50 using the Cheng-Prusoff equation, QSY7-APPswe-Eu substrate, pH 5.0, read-out: BACE-1 Ki; for inhibition at 10 µM: read-out: BACE-1 inhibition (printed in BACE-1 Ki column). The source says: Reagents: Na^+-Acetate pH 5.0; 1% Brij-35; Glycerol; Dimethyl Sulfoxide (DMSO); Recombinant human soluble BACE1 catalytic domain (>95% pure); APP Swedish mutant peptide substrate (QSY7-APP^swe-Eu): QSY7-EISEVNLDAEFC-Europium-amide.
Sequence of Recombinant human soluble BACE1 catalytic domain (P56817 75-416): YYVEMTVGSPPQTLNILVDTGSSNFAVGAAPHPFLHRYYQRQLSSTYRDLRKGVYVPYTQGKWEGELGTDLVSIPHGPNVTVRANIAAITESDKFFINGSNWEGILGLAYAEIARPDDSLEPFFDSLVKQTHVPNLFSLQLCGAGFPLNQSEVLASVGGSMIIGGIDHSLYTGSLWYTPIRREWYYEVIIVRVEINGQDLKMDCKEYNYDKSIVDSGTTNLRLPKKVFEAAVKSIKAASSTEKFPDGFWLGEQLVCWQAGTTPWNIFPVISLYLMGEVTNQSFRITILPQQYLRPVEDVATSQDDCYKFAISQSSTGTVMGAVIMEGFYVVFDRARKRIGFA
A homogeneous time-resolved FRET assay can be used to determine IC50 values for inhibitors of the soluble human BACE1 catalytic domain. This assay monitors the increase of 620 nm fluorescence that resulted from BACE1 cleavage of an APPswedish APP^swe mutant peptide FRET substrate (QSY7-EISEVNLDAEFC-Europium-amide). This substrate contains an N-terminal QSY7 moiety that serves as a quencher of the C-terminal Europium fluorophore (620 nm Em). In the absence of enzyme activity, 620 nm fluorescence is low in the assay and increased linearly over 3 hours in the presence of uninhibited BACE1 enzyme. Inhibition of BACE1 cleavage of the QSY7-APP^swe-Eu substrate by inhibitors is manifested as a suppression of 620 nm fluorescence.
Varying concentrations of inhibitors at 3× the final desired concentration in a volume of 10 ul are preincubated with purified human BACE1 catalytic domain (3 nM in 10 μl) for 30 minutes at 30° C. in reaction buffer containing 20 mM Na-Acetate pH 5.0, 10% glycerol, 0.1% Brij-35 and 7.5% DSMO. Reactions are initiated by addition of 10 μl of 600 nM QSY7-APP^swe-Eu substrate (200 nM final) to give a final reaction volume of 30 μl in a 384 well Nunc HTRF plate. The reactions are incubated at 30° C. for 1.5 hours. The 620 nm fluorescence is then read on a Rubystar HTRF plate reader (BMG Labtechnologies) using a 50 millisecond delay followed by a 400 millisecond acquisition time window. Inhibitor IC50 values are derived from non-linear regression analysis of concentration response curves. Ki values are then calculated from IC50 values using the Cheng-Prusoff equation using a previously determined […] of 8 μM for the QSY7-APP^swe-Eu substrate at BACE1.

Sequence of purified human autoBACE-2 (Q9Y5Z0 63-518): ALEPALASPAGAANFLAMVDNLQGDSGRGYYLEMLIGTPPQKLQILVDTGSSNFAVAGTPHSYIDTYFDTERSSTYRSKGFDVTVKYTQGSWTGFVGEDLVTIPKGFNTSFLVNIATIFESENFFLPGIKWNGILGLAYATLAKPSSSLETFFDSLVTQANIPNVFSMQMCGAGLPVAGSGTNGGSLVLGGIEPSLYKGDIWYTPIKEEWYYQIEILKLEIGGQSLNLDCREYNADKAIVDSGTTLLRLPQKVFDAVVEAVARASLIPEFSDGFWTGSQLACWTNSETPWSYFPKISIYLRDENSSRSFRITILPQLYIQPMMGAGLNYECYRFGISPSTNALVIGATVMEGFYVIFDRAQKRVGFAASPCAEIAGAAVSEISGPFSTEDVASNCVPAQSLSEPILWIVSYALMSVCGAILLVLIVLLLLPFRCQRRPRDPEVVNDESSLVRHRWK

In the case of `C[C@H]1C[C@@H]2[C@](c3ccccc3F)(CO1)NC(=N)C(C)(C)S2(=O)=O` [Example 1, (4aS,7S,8aR)-4a-(2-fluorophenyl)-3-imino-2,2,7-trimethyloctahydropyrano[4,3-b][1,4]thiazine 1,1-dioxide], the inhibition constant Ki in assay [1] is 72.5 nM; in assay [2] it was 363 nM.
Turning to `C[C@@H]1C[C@@H]2[C@](c3ccccc3F)(CO1)NC(=N)C(C)(C)S2(=O)=O` [Example 2, (4aS,7R,8aR)-4a-(2-fluorophenyl)-3-imino-2,2,7-trimethyloctahydropyrano[4,3-b][1,4]thiazine 1,1-dioxide], in assay [1], the Ki was 6260 nM. For the same molecule, the inhibition at 10 µM in assay [2] came to 50%.
For `C[C@H]1C[C@@H]2[C@](c3cc(Br)ccc3F)(CO1)NC(=N)C(C)(C)S2(=O)=O` [Example 3, (4aS,7S,8aR)-4a-(5-bromo-2-fluorophenyl)-3-imino-2,2,7 trimethyloctahydropyrano[4,3-b][1,4]thiazine 1,1-dioxide], the Ki in assay [1] is 399 nM; in assay [2] it was 1210 nM.
For the molecule `CC(C)COc1ccc(F)c([C@]23CO[C@@H](C)C[C@H]2S(=O)(=O)C(C)(C)C(=N)N3)c1` [Example 4, (4aS,7S,8aR)-4a-(2-fluoro-5-isobutoxyphenyl)-3-imino-2,2,7-trimethyloctahydropyrano[4,3-b][1,4]thiazine 1,1-dioxide], the figures for the inhibition constant Ki in assay [1] and in assay [2] were 31.6 nM and 354 nM, respectively.
In the case of `C[C@H]1C[C@@H]2[C@](c3cc(Oc4ncccc4F)ccc3F)(CO1)NC(=N)C(C)(C)S2(=O)=O` [Example 5, (4aS,7S,8aR)-4a-(2-fluoro-5-((3-fluoropyridin-2-yl)oxy)phenyl)-3-imino-2,2,7-trimethyloctahydropyrano[4,3-b][1,4]thiazine 1,1-dioxide], the inhibition constant Ki in assay [1] is 4.9 nM; in assay [2], 17.5 nM.
Turning to `C[C@H]1C[C@@H]2[C@](c3cc(Oc4cc(C#N)ccn4)ccc3F)(CO1)NC(=N)C(C)(C)S2(=O)=O` [Example 6, 2-(4-fluoro-3-((4aS,7S,8aR)-3-imino-2,2,7-trimethyl-1,1-dioxidooctahydropyrano[4,3-b][1,4]thiazin-4a-yl)phenoxy)isonicotinonitrile], the inhibitory constant (Ki) was 19.2 nM in assay [1] and 23.6 nM in assay [2].
In the case of `C[C@H]1C[C@@H]2[C@](c3cc(Oc4ncc(F)cc4F)ccc3F)(CO1)NC(=N)C(C)(C)S2(=O)=O` [Example 7, (4aS,7S,8aR)-4a-(5-((3,5-difluoropyridin-2-yl)oxy)-2-fluorophenyl)-3-imino-2,2,7-trimethyloctahydropyrano[4,3-b][1,4]thiazine 1,1-dioxide], the Ki was 28.9 nM in assay [1] and 53.6 nM in assay [2].
Take `C[C@@H]1C[C@@H]2[C@](c3cc(OCC4CC4)ccc3F)(CO1)NC(=N)C(C)(C)S2(=O)=O` [Example 8, (4aS,7R,8aR)-4a-(5-(cyclopropylmethoxy)-2-fluorophenyl)-3-imino-2,2,7-trimethyloctahydropyrano[4,3-b][1,4]thiazine 1,1-dioxide]: the inhibitory constant (Ki) in assay [1] is 1180 nM; in assay [2], 4480 nM.
Take `C[C@H]1C[C@@H]2[C@](c3cc(OCC4CC4)ccc3F)(CO1)NC(=N)C(C)(C)S2(=O)=O` [Example 9, (4aS,7S,8aR)-4a-(5-(cyclopropylmethoxy)-2-fluorophenyl)-3-imino-2,2,7-trimethyloctahydropyrano[4,3-b][1,4]thiazine 1,1-dioxide]: the inhibitory constant (Ki) in assay [1] was 11.4 nM; in assay [2] it was 94.2 nM.
Take `COc1ccc(F)c([C@]23CO[C@@H](C)C[C@H]2S(=O)(=O)C(C)(C)C(=N)N3)c1` [Example 10, (4aS,7S,8aR)-4a-(2-fluoro-5-methoxyphenyl)-3-imino-2,2,7-trimethyloctahydropyrano[4,3-b][1,4]thiazine 1,1-dioxide]: the Ki in assay [1] is 249 nM; in assay [2] it was 681 nM.
For `COc1ccc(F)c([C@]23CO[C@H](C)C[C@H]2S(=O)(=O)C(C)(C)C(=N)N3)c1` [Example 11, (4aS,7R,8aR)-4a-(2-fluoro-5-methoxyphenyl)-3-imino-2,2,7-trimethyloctahydropyrano[4,3-b][1,4]thiazine 1,1-dioxide], the Ki in assay [1] was 8400 nM. The inhibition at 10 µM in assay [2] was 27%.
For the molecule `COc1ccc(F)c([C@]23CO[C@@H](c4ccc(F)cc4)C[C@H]2S(=O)(=O)C(C)(C)C(=N)N3)c1` [Example 12, (4aS,7R,8aR)-4a-(2-fluoro-5-methoxyphenyl)-7-(4-fluorophenyl)-3-imino-2,2-dimethyloctahydropyrano[4,3-b][1,4]thiazine 1,1-dioxide], the figures for the inhibition constant (Ki) in assay [1] and in assay [2] were 96.3 nM and 184 nM, respectively.
As to `CC1(C)C(=N)N[C@@]2(c3cc(OCC4CC4)ccc3F)CO[C@@H](c3ccc(F)cc3)C[C@H]2S1(=O)=O` [Example 13, (4aS,7R,8aR)-4a-(5-(cyclopropylmethoxy)-2-fluorophenyl)-7-(4-fluorophenyl)-3-imino-2,2-dimethyloctahydropyrano[4,3-b][1,4]thiazine 1,1-dioxide], the inhibition constant Ki is 11.7 nM in assay [1] and 115 nM in assay [2].
In the same order, the values of `CC1(C)C(=N)N[C@@]2(c3cc(Oc4ncccc4F)ccc3F)CO[C@@H](c3ccc(F)cc3)C[C@H]2S1(=O)=O` [Example 14, (4aS,7R,8aR)-4a-(2-fluoro-5-((3-fluoropyridin-2-yl)oxy)phenyl)-7-(4-fluorophenyl)-3-imino-2,2-dimethyloctahydropyrano[4,3-b][1,4]thiazine 1,1-dioxide] are 1.9 nM and 3.9 nM.
On to `CC1(C)C(=N)N[C@@]2(c3cc(Oc4cc(C#N)ccn4)ccc3F)CO[C@@H](c3ccc(F)cc3)C[C@H]2S1(=O)=O` [Example 15, 2-(4-fluoro-3-((4aS,7R,8aR)-7-(4-fluorophenyl)-3-imino-2,2-dimethyl-1,1-dioxidooctahydropyrano[4,3-b][1,4]thiazin-4a-yl)phenoxy)isonicotinonitrile], for which the Ki in assay [1] is 19.8 nM; in assay [2], 17.9 nM.
As for `COc1ccc(F)c([C@]23CO[C@@H](CO)C[C@H]2S(=O)(=O)C(C)(C)C(=N)N3)c1` [Example 16, (4aS,7R,8aR)-4a-(2-fluoro-5-methoxyphenyl)-7-(hydroxymethyl)-3-imino-2,2-dimethyloctahydropyrano[4,3-b][1,4]thiazine 1,1-dioxide], the values for the Ki in assay [1] and in assay [2] were 2020 nM and 2860 nM, respectively.
For `CC1(C)C[C@@H]2[C@](c3ccccc3F)(CO1)NC(=N)C(C)(C)S2(=O)=O` [Example 17, (4aS,8aR)-4a-(2-fluorophenyl)-2,2,7,7-tetramethyltetrahydro-2H,5H-pyrano[4,3-b][1,4]thiazin-3(4H)-imine 1,1-dioxide] the same measures were 293 nM and 300 nM.
Take `CC1(C)C[C@@H]2[C@](c3cc(Oc4ncccc4F)ccc3F)(CO1)NC(=N)C(C)(C)S2(=O)=O` [Example 18, (4aS,8aR)-4a-{2-fluoro-5-[(3-fluoropyridin-2-yl)oxy]phenyl}-2,2,7,7-tetramethyltetrahydro-2H,5H-pyrano[4,3-b][1,4]thiazin-3(4H)-imine 1,1-dioxide]: the values for the Ki in assay [1] and in assay [2] were 42.2 nM and 22.4 nM, respectively.
In the same order, the values of `CC1(C)C[C@@H]2[C@](c3cc(Oc4cc(C#N)ccn4)ccc3F)(CO1)NC(=N)C(C)(C)S2(=O)=O` [Example 19] are 65.2 nM and 33.8 nM.
As for `CC1(C)C[C@@H]2[C@](c3cc(Oc4ncc(F)cc4F)ccc3F)(CO1)NC(=N)C(C)(C)S2(=O)=O` [Example 20, (4aS,8aR)-4a-{5-[(3,5-difluoropyridin-2-yl)oxy]-2-fluorophenyl}-2,2,7,7-tetramethyltetrahydro-2H,5H-pyrano[4,3-b][1,4]thiazin-3(4H)-imine 1,1-dioxide], the Ki is 102 nM in assay [1] and 53.2 nM in assay [2].

Usually Ki stands for the equilibrium dissociation constant of an inhibitor or competing ligand from its target. One may read the inhibition as how much of the control response was suppressed.

The values above are taken from patent US10689401B2, “C5-C6-oxacyclic fused iminothiazine dioxide compounds bearing an ether linker as BACE inhibitors, compositions, and their use” (Merck Sharp & Dohme Corp., priority 2016, dated 2020).
